{
  "source": "patent US12350259B2",
  "about": "“Methods of treating migraine” (Allergan Pharmaceuticals International Limited, priority 2021, dated 2025)",
  "key": {"CYP3A4": {"tested_on": "CYP3A4", "assay": "CYP induction", "format": "in vitro ADME", "conditions": "clinically relevant concentrations"}, "OATP1B3": {"biological_target": "OATP1B3 (Homo sapiens, UniProt Q9NPD5)", "sequence (Q9NPD5 whole entry)": "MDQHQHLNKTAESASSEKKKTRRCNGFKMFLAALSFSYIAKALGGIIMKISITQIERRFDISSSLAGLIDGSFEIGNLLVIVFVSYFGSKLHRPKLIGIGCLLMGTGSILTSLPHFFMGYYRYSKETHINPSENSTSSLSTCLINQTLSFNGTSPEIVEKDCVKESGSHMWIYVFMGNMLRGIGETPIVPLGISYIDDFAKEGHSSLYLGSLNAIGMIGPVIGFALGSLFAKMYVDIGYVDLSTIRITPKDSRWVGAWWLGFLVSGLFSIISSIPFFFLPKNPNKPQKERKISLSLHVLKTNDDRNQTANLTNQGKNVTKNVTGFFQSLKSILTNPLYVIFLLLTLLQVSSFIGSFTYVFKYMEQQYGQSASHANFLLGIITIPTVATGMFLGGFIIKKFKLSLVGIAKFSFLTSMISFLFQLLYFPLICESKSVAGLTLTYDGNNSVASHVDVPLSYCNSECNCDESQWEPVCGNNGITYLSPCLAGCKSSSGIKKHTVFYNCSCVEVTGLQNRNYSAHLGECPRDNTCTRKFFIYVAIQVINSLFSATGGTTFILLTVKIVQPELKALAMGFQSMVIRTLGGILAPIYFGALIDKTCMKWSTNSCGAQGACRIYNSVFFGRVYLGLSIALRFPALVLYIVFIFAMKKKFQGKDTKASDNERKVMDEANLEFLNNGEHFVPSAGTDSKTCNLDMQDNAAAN", "assay": "Transporter inhibition", "format": "in vitro ADME"}, "plasma protein": {"tested_on": "plasma protein", "assay": "Hepatic impairment study: atogepant plasma protein binding", "format": "in vitro ADME, human", "conditions": "for fraction unbound: human, 0 hr (predose, spiked sample), read-out: plasma protein binding, percent bound (converted); for plasma protein binding, percent bound: 2 hr post dose", "protocol": "(§1) Protein binding blood samples were collected from all participants starting on Day 1 at 0 hour (predose) and at 2 hours post dose. The pre-dose samples collected prior to dosing for each participant were externally spiked with known quantities of atogepant. Percent bound atogepant was determined in the 2-hour sample using direct measurement of the atogepant concentrations in the blood sample."}, "[1]": {"assay": "Hepatic impairment study: atogepant plasma protein binding", "format": "in vitro ADME, human", "conditions": "human, plasma, oral, 60 mg, 2 hr post dose, read-out: plasma protein binding, percent bound (converted)", "protocol": "as §1"}, "MRP4": {"biological_target": "MRP4 (Homo sapiens, UniProt O15439)", "assay": "Transporter inhibition", "format": "in vitro ADME", "conditions": "clinically relevant concentrations"}, "MRP3": {"biological_target": "MRP3 (Homo sapiens, UniProt O15438)", "sequence (O15438 whole entry)": "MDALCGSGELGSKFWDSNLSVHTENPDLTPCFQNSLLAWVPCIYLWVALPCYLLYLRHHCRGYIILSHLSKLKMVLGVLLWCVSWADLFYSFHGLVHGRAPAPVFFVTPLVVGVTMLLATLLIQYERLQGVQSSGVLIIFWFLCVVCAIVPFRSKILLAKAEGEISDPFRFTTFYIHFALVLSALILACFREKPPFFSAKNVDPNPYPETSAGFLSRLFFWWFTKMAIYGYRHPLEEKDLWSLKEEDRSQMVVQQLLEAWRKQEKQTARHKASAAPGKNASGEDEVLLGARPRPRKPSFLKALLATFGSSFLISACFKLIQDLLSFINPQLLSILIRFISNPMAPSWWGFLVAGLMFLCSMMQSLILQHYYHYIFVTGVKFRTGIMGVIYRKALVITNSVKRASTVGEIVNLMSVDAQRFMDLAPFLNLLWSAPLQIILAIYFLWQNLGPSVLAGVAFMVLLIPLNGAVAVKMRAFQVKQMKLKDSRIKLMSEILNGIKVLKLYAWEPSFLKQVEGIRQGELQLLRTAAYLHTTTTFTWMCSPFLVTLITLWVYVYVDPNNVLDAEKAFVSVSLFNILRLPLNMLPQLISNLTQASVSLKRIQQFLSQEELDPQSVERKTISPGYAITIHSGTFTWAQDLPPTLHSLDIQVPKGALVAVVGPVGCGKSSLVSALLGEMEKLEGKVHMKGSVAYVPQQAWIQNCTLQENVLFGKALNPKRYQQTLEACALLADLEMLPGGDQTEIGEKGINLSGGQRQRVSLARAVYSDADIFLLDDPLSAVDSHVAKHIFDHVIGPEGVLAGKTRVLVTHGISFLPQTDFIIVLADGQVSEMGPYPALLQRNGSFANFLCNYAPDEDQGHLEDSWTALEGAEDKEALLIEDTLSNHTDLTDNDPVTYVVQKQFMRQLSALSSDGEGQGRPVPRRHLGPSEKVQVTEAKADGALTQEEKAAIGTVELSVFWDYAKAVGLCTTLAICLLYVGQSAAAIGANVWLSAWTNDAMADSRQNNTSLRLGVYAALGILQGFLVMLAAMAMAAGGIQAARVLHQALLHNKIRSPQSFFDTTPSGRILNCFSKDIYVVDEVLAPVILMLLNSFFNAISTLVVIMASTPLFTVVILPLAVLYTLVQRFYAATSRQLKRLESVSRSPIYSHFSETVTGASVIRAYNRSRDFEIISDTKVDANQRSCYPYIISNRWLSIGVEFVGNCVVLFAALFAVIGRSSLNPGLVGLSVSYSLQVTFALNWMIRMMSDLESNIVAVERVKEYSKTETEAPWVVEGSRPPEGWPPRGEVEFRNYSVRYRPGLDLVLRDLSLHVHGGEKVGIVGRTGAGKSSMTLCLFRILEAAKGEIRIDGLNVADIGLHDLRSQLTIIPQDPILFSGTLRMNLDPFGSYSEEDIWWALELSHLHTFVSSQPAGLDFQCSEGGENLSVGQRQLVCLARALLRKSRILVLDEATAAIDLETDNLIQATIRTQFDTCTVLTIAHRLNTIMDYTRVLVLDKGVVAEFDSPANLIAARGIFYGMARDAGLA", "assay": "Transporter inhibition", "format": "in vitro ADME", "conditions": "clinically relevant concentrations"}, "CYP2B6": {"tested_on": "CYP2B6", "assay": "CYP induction", "format": "in vitro ADME", "conditions": "clinically relevant concentrations"}, "P-gp": {"biological_target": "P-gp (Homo sapiens, UniProt P08183)", "sequence (P08183 whole entry)": "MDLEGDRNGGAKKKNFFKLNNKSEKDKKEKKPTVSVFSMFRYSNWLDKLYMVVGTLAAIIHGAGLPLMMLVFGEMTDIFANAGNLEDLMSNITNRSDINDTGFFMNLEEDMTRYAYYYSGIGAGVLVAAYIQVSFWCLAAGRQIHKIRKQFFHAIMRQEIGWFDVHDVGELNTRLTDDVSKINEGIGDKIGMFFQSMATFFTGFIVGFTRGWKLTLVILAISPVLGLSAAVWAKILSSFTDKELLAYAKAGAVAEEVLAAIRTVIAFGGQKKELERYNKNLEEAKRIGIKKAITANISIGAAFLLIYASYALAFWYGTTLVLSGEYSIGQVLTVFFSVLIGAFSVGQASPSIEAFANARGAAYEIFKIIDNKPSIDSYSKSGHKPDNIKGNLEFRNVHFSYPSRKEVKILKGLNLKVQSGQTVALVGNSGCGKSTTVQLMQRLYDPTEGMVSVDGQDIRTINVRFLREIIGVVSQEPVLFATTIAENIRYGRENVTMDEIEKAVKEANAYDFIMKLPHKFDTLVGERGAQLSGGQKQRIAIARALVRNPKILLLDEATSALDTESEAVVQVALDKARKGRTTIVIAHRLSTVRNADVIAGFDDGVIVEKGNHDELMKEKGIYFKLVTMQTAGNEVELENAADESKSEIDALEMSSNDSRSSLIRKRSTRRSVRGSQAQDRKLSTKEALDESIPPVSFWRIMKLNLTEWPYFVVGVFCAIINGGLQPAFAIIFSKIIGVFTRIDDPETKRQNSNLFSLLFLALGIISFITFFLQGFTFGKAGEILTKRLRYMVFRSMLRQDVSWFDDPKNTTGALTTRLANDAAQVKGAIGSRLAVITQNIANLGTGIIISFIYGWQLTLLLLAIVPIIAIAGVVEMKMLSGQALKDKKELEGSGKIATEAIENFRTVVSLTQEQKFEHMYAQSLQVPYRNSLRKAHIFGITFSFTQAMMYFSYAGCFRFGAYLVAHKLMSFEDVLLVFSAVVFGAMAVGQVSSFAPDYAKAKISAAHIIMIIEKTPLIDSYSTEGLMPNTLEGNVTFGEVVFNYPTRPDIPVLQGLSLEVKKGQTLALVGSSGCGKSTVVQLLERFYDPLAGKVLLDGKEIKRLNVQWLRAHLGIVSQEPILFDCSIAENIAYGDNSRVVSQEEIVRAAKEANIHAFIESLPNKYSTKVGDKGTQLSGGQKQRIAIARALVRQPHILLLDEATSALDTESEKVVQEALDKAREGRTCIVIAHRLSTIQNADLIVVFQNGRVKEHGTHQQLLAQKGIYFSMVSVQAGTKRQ", "assay": "Transporter substrate", "format": "in vitro ADME"}, "[2]": {"assay": "Atogepant-itraconazole drug interaction study: atogepant plasma PK", "format": "in vivo, human", "conditions": "for Tmax / AUC(0-inf) / AUC(0-t) / Cmax / half-life / Vd/F: both sexes, human, plasma, oral; for Vd/F: read-out: Vz/F", "protocol": "An open-label, single-sequence drug-drug interaction study was carried out to evaluate the effect of CYP3A4 inhibition by oral itraconazole (200 mg per day) on the pharmacokinetics of a single oral dose of atogepant (60 mg) in healthy subjects.\nThis study was a single-center, single-sequence, open-label, 2-period PK drug-interaction study in 40 healthy male and female subjects aged 18 through 45 years.\nSubjects who satisfied the inclusion and exclusion criteria were assigned to a single fixed-treatment sequence in which they received Treatment A followed by Treatment B; there was a 7-day washout period between treatments. • Treatment A: Single oral 60 mg dose of atogepant (tablet) under fasted conditions on Day 1 • Treatment B • Days 8-14: Itraconazole 200 mg (tablet) orally once daily under fed conditions. • Day 15: Itraconazole 200 mg coadministered with atogepant 60 mg (tablet) under fasted conditions. • Days 16 to 17: Itraconazole 200 mg (tablet) once daily under fed conditions.\nAtogepant was administered in the fasted state in this study. Administration of itraconazole with food enhances its bioavailability. Accordingly, to maximize the CYP3A4 inhibition effect, itraconazole was administered with food on all the itraconazole treatment days except day 15. On day 15, both itraconazole and atogepant were administered under fasted state. Fasted state administration of itraconazole on Day 15 was unlikely to affect the CYP3A4 inhibition effect due to the attainment of steady state (of CYP3A4 activity) and long T1/2 of itraconazole (34 to 42 hours) following repeat dose administration."}, "OATP1B1": {"biological_target": "OATP1B1 (Homo sapiens, UniProt Q9Y6L6)", "sequence (Q9Y6L6 whole entry)": "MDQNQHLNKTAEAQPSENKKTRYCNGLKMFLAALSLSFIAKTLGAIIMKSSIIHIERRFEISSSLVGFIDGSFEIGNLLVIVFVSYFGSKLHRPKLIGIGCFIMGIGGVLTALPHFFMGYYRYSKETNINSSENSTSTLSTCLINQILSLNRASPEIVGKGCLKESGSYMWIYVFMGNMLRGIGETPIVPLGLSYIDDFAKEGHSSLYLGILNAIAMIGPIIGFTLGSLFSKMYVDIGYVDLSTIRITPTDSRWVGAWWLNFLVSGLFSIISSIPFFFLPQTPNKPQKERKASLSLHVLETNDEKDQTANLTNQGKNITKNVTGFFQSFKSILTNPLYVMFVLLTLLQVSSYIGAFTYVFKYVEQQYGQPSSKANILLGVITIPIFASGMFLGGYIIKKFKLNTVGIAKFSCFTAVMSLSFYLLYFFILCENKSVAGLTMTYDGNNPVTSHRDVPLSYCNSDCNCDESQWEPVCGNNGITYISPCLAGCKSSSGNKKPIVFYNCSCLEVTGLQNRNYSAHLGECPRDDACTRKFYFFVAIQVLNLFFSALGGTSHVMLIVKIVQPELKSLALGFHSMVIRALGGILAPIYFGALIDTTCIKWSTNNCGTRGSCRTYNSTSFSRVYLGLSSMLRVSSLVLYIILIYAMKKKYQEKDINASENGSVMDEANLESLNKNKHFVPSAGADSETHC", "assay": "Transporter substrate", "format": "in vitro ADME"}, "[3]": {"assay": "Atogepant-topiramate interaction study: safety and tolerability", "format": "in vivo, human"}, "CYP1A2": {"biological_target": "CYP1A2 (Homo sapiens, UniProt P05177)", "sequence (P05177 whole entry)": "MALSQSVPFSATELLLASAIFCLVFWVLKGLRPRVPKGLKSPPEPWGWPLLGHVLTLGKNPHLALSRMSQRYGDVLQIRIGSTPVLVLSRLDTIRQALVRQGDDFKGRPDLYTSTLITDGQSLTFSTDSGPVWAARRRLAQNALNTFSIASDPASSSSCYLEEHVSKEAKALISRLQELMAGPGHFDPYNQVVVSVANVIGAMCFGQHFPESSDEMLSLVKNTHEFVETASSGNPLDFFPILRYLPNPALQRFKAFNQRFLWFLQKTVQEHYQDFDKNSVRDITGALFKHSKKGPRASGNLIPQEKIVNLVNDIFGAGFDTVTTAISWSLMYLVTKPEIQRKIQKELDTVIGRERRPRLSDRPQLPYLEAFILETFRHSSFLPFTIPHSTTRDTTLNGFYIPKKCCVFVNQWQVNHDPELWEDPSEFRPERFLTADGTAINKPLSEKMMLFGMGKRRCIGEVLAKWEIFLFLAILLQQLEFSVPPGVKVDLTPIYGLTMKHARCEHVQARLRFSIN", "assay": "In vitro CYP inhibition", "format": "in vitro ADME", "conditions": "clinically relevant concentrations"}, "BSEP": {"biological_target": "BSEP (Homo sapiens, UniProt O95342)", "assay": "Transporter inhibition", "format": "in vitro ADME", "conditions": "clinically relevant concentrations"}, "OAT1": {"biological_target": "OAT1 (Homo sapiens, UniProt Q4U2R8)", "assay": "Transporter inhibition", "format": "in vitro ADME", "conditions": "clinically relevant concentrations"}, "[4]": {"conditions": "Treatment A: atogepant 60 mg single dose alone, fasted"}, "[5]": {"conditions": "Treatment B: atogepant 60 mg + steady state itraconazole 200 mg"}, "[6]": {"conditions": "atogepant + itraconazole vs atogepant alone"}, "[7]": {"conditions": "co-administration with itraconazole (strong CYP3A4 inhibitor), healthy subjects"}},
  "note": "Like-named read-outs stand apart in the source and are kept apart here. Marks after values point to notes of the source that are not given here.",
  "data": [
    {"molecule": "C[C@@H]1[C@H](c2c(F)ccc(F)c2F)C[C@H](NC(=O)c2cnc3c(c2)C[C@@]2(C3)C(=O)Nc3ncccc32)C(=O)N1CC(F)(F)F", "note": "[atogepant, (3′S)-N-[(3S,5S,6R)-6-methyl-2-oxo-1-(2,2,2-trifluoroethyl)-5-(2,3,6-trifluorophenyl)piperidin-3-yl]-2′-oxo-1′,2′,5,7-tetrahydrospiro[cyclopenta[b]pyridine-6,3′-pyrrolo[2,3-b]pyridine]-3-carboxamide]", "values": [
      {"measurement": "induction of CYP3A4", "setting": "CYP3A4", "result": "not an inducer"},
      {"measurement": "inhibition of OATP1B3", "setting": "OATP1B3", "result": "weak inhibitor"},
      {"measurement": "fraction unbound", "setting": "plasma protein; mild-impaired", "result": 0.0297},
      {"measurement": "fraction unbound", "setting": "plasma protein; moderate-impaired", "result": 0.034},
      {"measurement": "fraction unbound", "setting": "plasma protein; normal hepatic function", "result": 0.0211},
      {"measurement": "fraction unbound", "setting": "plasma protein; severe-impaired", "result": 0.0552},
      {"measurement": "plasma protein binding, percent bound", "setting": "plasma protein; mild-impaired", "result": "97.36 ± 0.70", "unit": "%"},
      {"measurement": "plasma protein binding, percent bound", "setting": "plasma protein; moderate-impaired", "result": "97.05 ± 0.62", "unit": "%"},
      {"measurement": "plasma protein binding, percent bound", "setting": "plasma protein; normal hepatic function", "result": "98.21 ± 0.46", "unit": "%"},
      {"measurement": "plasma protein binding, percent bound", "setting": "plasma protein; severe-impaired", "result": "95.34 ± 0.85", "unit": "%"},
      {"measurement": "fraction unbound at 2 h", "setting": "[1]; mild-impaired", "result": 0.026},
      {"measurement": "fraction unbound at 2 h", "setting": "[1]; moderate-impaired", "result": 0.029},
      {"measurement": "fraction unbound at 2 h", "setting": "[1]; normal hepatic function", "result": 0.018},
      {"measurement": "fraction unbound at 2 h", "setting": "[1]; severe-impaired", "result": 0.047},
      {"measurement": "inhibition of MRP4", "setting": "MRP4", "result": "not an inhibitor"},
      {"measurement": "inhibition of MRP3", "setting": "MRP3", "result": "not an inhibitor"},
      {"measurement": "induction of CYP2B6", "setting": "CYP2B6", "result": "not an inducer"},
      {"measurement": "substrate of P-gp", "setting": "P-gp", "result": "substrate"},
      {"measurement": "CL/F", "setting": "[2]; [4]", "result": 19.2, "unit": "L/h"},
      {"measurement": "λz", "setting": "[2]; [4]", "result": 0.0825, "unit": "h⁻¹"},
      {"measurement": "CL/F", "setting": "[2]; [5]", "result": 3.46, "unit": "L/h"},
      {"measurement": "λz", "setting": "[2]; [5]", "result": 0.0496, "unit": "h⁻¹"},
      {"measurement": "AUC0-t GM Ratio Treatment B/Treatment A", "setting": "[2]; [6]", "result": 543.26, "unit": "%"},
      {"measurement": "AUC0-∞ GM Ratio Treatment B/Treatment A", "setting": "[2]; [6]", "result": 550.78, "unit": "%"},
      {"measurement": "Cmax GM Ratio Treatment B/Treatment A", "setting": "[2]; [6]", "result": 215.11, "unit": "%"},
      {"measurement": "Tmax", "setting": "[2]; 60 mg, Treatment A: atogepant 60 mg single dose alone, fasted, read-out: Tmax (median)", "result": 2, "unit": "h"},
      {"measurement": "Tmax", "setting": "[2]; atogepant + itraconazole vs atogepant alone, read-out: Tmax difference of medians", "result": 1, "unit": "h"},
      {"measurement": "AUC(0-inf)", "setting": "[2]; [4]", "result": 3470, "unit": "ng·h/mL"},
      {"measurement": "AUC(0-t)", "setting": "[2]; [4]", "result": 3440, "unit": "ng·h/mL"},
      {"measurement": "Cmax", "setting": "[2]; [4]", "result": 740, "unit": "ng/mL"},
      {"measurement": "half-life", "setting": "[2]; [4]", "result": 11.2, "unit": "h"},
      {"measurement": "Vd/F", "setting": "[2]; [4]", "result": 292, "unit": "L"},
      {"measurement": "AUC(0-inf)", "setting": "[2]; [5]", "result": 18900, "unit": "ng·h/mL"},
      {"measurement": "AUC(0-t)", "setting": "[2]; [5]", "result": 18500, "unit": "ng·h/mL"},
      {"measurement": "Cmax", "setting": "[2]; [5]", "result": 1580, "unit": "ng/mL"},
      {"measurement": "half-life", "setting": "[2]; [5]", "result": 14.9, "unit": "h"},
      {"measurement": "Tmax", "setting": "[2]; Treatment B: atogepant 60 mg + steady state itraconazole 200 mg, read-out: Tmax (median)", "result": 3, "unit": "h"},
      {"measurement": "Vd/F", "setting": "[2]; [5]", "result": 73.4, "unit": "L"},
      {"measurement": "increase in atogepant AUC", "setting": "[2]; [7]", "result": 5.5, "unit": "fold"},
      {"measurement": "increase in atogepant Cmax", "setting": "[2]; [7]", "result": 2.15, "unit": "fold"},
      {"measurement": "substrate of OATP1B1", "setting": "OATP1B1", "result": "substrate"},
      {"measurement": "Deaths, %", "setting": "[3]; cohort 1, atogepant + topiramate (n = 26)", "result": "(0) %"},
      {"measurement": "Deaths, %", "setting": "[3]; cohort 1, atogepant alone (n = 28)", "result": "(0) %"},
      {"measurement": "TEAEs leading to discontinuation, %", "setting": "[3]; human, in vivo", "result": "(17.9)^a %"},
      {"measurement": "TESAEs, %", "setting": "[3]; human, in vivo", "result": "(0) %"},
      {"measurement": "Treatment-related TEAEs, %", "setting": "[3]; human, in vivo", "result": "(39.3) %"},
      {"measurement": "Treatment-related TESAEs, %", "setting": "[3]; human, in vivo", "result": "(0) %"},
      {"measurement": "constipation reported", "setting": "[3]; human, in vivo", "result": 3, "unit": "participants"},
      {"measurement": "nausea reported", "setting": "[3]; human, in vivo", "result": 6, "unit": "participants"},
      {"measurement": "TEAEs, %", "setting": "[3]; human, in vivo, 7 days", "result": "(71.4) %"},
      {"measurement": "inhibition of CYP1A2", "setting": "CYP1A2", "result": "not an inhibitor"},
      {"measurement": "inhibition of BSEP", "setting": "BSEP", "result": "not an inhibitor"},
      {"measurement": "inhibition of OAT1", "setting": "OAT1", "result": "not an inhibitor"}
    ]}
  ]
}
